From PubChem BioAssay (NCI)
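Exposure lasted 48 hours, with cells grown in 96-well plates and compounds tested at five concentrations. GI50 marks 50% less growth. TGI is the concentration that stops growth completely.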

Tests used:
Experiment in all cases: NCI-60 cell line screen, 48 h
[1] = system: A498 renal
[2] = system: HCT-116 colon
[3] = system: HCT-15 colon
[4] = system: IGROV1 ovarian
[5] = system: LOX IMVI melanoma
[6] = system: MALME-3M melanoma
[7] = system: MDA-N
[8] = system: OVCAR-8 ovarian
[9] = system: SW-620 colon
[10] = system: TK-10 renal
[11] = system: SK-MEL-28 melanoma

Compound	TGI [1]	TGI [2]	TGI [3]	TGI [4]	TGI [5]	TGI [6]	TGI [7]	TGI [8]	TGI [9]	TGI [10]	TGI [11]	GI50 [2]	GI50 [4]	GI50 [6]	GI50 [8]	GI50 [9]	GI50 [10]
NC(=S)N/N=C/c1cc(CN2CCOCC2)c(N)cn1	> 100 µM	> 100 µM	> 100 µM	> 100 µM	> 100 µM	> 100 µM	> 100 µM	> 100 µM	> 100 µM	> 100 µM							
O=C1/C(=C/c2cccc([N+](=O)[O-])c2)CCCc2ccccc21		17.2 µM	23 µM	25.8 µM	16.5 µM	22.2 µM	22.7 µM	28.9 µM	17 µM	30.8 µM	28.6 µM						
O=C1/C(=C/c2cccc([N+](=O)[O-])c2)COc2ccccc21	> 84.4 µM	3.16 µM	3.11 µM	> 19.9 µM	3.44 µM	> 50.6 µM		9.19 µM	2.09 µM	> 95.2 µM	7.42 µM						
N#C/C(=C\c1ccc(Cl)cc1)c1nc2ccccc2c(=O)[nH]1		> 100 µM	> 100 µM	> 100 µM	> 100 µM	> 100 µM	> 100 µM	> 100 µM	> 100 µM	> 100 µM	> 100 µM						
Nc1ncc2c(n1)-c1ccccc1OC2NC1CC1 (stereo not drawn)	> 100 µM	> 100 µM	> 100 µM	> 100 µM	> 100 µM		> 100 µM	> 100 µM	> 100 µM	> 100 µM							
CC1CN=C(NCc2ccccc2)S1 (stereo not drawn)	> 100 µM	> 100 µM	> 100 µM		> 100 µM	> 100 µM	> 100 µM			> 100 µM	> 100 µM						
CCN(CC)CCCCC1CCN(CC(=O)N2c3ccccc3NC(=O)c3ccccc32)CC1	> 100 µM	> 100 µM				> 100 µM		> 100 µM	> 100 µM	> 100 µM	> 100 µM						
COc1ccc2oc(=N)c(C(N)=S)cc2c1		45.7 µM	36.7 µM	> 100 µM	33 µM	32.9 µM	67.5 µM	38.9 µM	> 100 µM	90.2 µM	> 100 µM						
CC(=O)Nc1ccc(-c2nnc(SCC(=O)Nc3ccccc3Cl)o2)cc1	> 100 µM	> 100 µM	> 100 µM	> 100 µM	> 100 µM	> 100 µM		> 100 µM	> 100 µM	> 100 µM	> 100 µM						
COc1cc(/C=C2\CCCC3=C2NC(N)=NC3c2cc(OC)c(OC)c(OC)c2)cc(OC)c1OC (stereo not drawn)		1.97 µM		> 100 µM		5.47 µM		12.1 µM	3.51 µM	7.23 µM		0.551 µM	3.35 µM	1.92 µM	0.298 µM	1.08 µM	3.24 µM
CCOc1ccc(NCC(=O)N2CC(=O)Nc3ccccc32)cc1		> 100 µM	> 100 µM		> 100 µM	> 100 µM		> 100 µM	> 100 µM	> 100 µM	> 100 µM						
COC(=O)n1c(=O)nc2c3c(ncn21)Oc1c(c(-c2ccccc2)nn1-c1ccccc1)C3c1ccc(Cl)cc1 (stereo not drawn)	5.02 µM	2.17 µM	2.95 µM		2.79 µM	2.21 µM	3.01 µM		3.06 µM	3.37 µM	3.18 µM						
COc1cc(C2c3cccc4cccc(c34)C3CCC(=O)N32)cc(O)c1O (stereo not drawn)	> 50 µM	> 50 µM	> 50 µM	> 50 µM			> 50 µM	> 50 µM	> 50 µM		> 50 µM						
Oc1ccccc1C=Nc1ccc(Oc2ccc(Cl)cc2)c(Cl)c1	33.7 µM	40.1 µM	36.6 µM	> 100 µM	41 µM	44.2 µM		57.9 µM	> 100 µM	> 100 µM	72.5 µM						
CN(C)c1ccc(C2CC(=O)CC(c3ccc(N(C)C)cc3)C23C(=O)NC(=O)NC3=O)cc1 (stereo not drawn)		> 25 µM	> 25 µM	> 25 µM	> 25 µM	> 25 µM	> 25 µM	> 25 µM	> 25 µM	> 25 µM	> 25 µM						
Cc1ccc(S(=O)(=O)N/N=C2\C(=O)C3CC2C(Cl)C3Cl)cc1 (stereo not drawn)	> 100 µM	> 100 µM	> 100 µM	> 100 µM	> 100 µM	> 100 µM		> 100 µM	> 100 µM	> 100 µM	> 100 µM						
C/C(C=O)=N\Nc1cc(C)c2ccccc2n1	28.9 µM	27.6 µM	26.3 µM	32.1 µM	29.4 µM			34.8 µM	72.8 µM	29.5 µM	39.1 µM						
Cc1ccc(S(=O)(=O)N(c2ccccc2F)C2CCCCC2O)cc1 (stereo not drawn)	> 100 µM	> 100 µM	> 100 µM		> 100 µM	> 100 µM	50.1 µM	> 100 µM	> 100 µM	> 100 µM	> 100 µM						
O=C(O)Cc1cc(=O)oc2cc(O)c(Cl)cc12	> 100 µM	> 100 µM	> 100 µM	> 100 µM	> 100 µM	> 100 µM		> 100 µM	> 100 µM	> 100 µM	> 100 µM						
CC1C2CC(C(C3C(=O)C4CC3C(C)(C)C4C)C2=O)C1(C)C (stereo not drawn)	> 100 µM	> 100 µM		> 100 µM		> 100 µM	> 100 µM	> 100 µM	> 100 µM	> 100 µM	> 100 µM						
CSc1nc(C)cc(Nc2ccc(O)c(CN3CCCCC3)c2)n1	53.1 µM	> 100 µM	> 100 µM	> 100 µM	> 100 µM	> 100 µM	75.4 µM	> 100 µM	> 100 µM		79.6 µM						
CN(C(=O)C1=CCCCCC1)c1ccccc1I	> 100 µM	> 100 µM	> 100 µM	> 100 µM	> 100 µM		> 100 µM	> 100 µM	> 100 µM		> 100 µM						
